Entries after “also recorded” stand apart in the source; their conditions may differ.
Tests used:
Format in all cases: cell-based, human
LN229 cells = experiment: LN229 scratch wound healing assay; conditions: for activity at 100 µM: Homo sapiens, LN-229, normalized to DMSO controls, read-out: LN229 scratch wound closure relative to DMSO controls
Source text: FIGS. 3(A-D) illustrate a histogram and images of the LN229 scratch wound assays. A. Histogram showing the effects of all soluble wedge-targeted compounds on LN229 scratch wound closure. Cell movement into the scratches was quantified from scratch wound widths at the start and end of the assay and normalized to the average movement of cells in the unblinded DMSO control samples. Data is presented as average percentages±standard error of the means (s.e.m.), and compound bar codes are shown on the x-axis. The majority of compounds were screened with an n=2. Some priority compounds were screened with 3-6 replicates. Representative endpoint images of samples treated with DMSO (B) and two priority inhibitors (C and D) are shown. The relative migration distances for each example are indicated.
(§1) Cells were seeded at a density of 2.7×10^4 cells per well into the internal wells of Incuyte1 Imagelock 96-well plates (Essen BioScience Inc., Ann Arbor, MI) and cultured overnight to form monolayers. Monolayers were wounded with an IncuCyte1 96-well Woundmaker Tool per the manufacturer's instructions. The outer wells were filled with PBS to buffer edge effects, and then the wounded monolayers were cultured in 100 μl of fresh media with compounds or DMSO (2×replicates at 100 μM or 1%, respectively) at 37 °C and 5% CO2. Images were captured every 4 hrs. using an Incucyte live cell imaging system equipped with the Scratch Wound Module. Scratch wound widths were calculated, per the manufacturer's instructions, at TO and at endpoint (typically T12 for LN229 and U87 cells and T8 for Gli36), which was taken as the last timepoint before wound closure. The cell migration distance was calculated from scratch widths [(T0Width−TendpointWidth)/2] and normalized to the average distance migrated by the DMSO controls. Values are presented as average percentages±standard errors of the means (s.e.m.). The majority of compounds were screened with an n of two, but the n for priority hits ranges from 2-6.
Scratch assays measure the ability of cells to migrate into a wound and close it creating a monolayer.

Gli36 cells = experiment: Gli36 scratch wound healing assay; conditions: 100 μM; for Effect on Gli36 migration (scratch wound closure): endpoint 8 h, in words
Description: FIGS. 4(A-D) illustrate a histogram and images showing the results of the Gli36 scratch wound assays. Selected inhibitors, activators, and control compounds identified in LN229 and/or U87 scratch wound closure assays were retested at 100 μM for effects on Gli36 migration. A. Histogram showing the normalized migration distance for each treated sample. Data is presented as average % movement±s.e.m, and compound bar codes are shown on the x-axis. The majority of compounds were screened with an n of 2-4. Representative endpoint images of samples treated with DMSO (B) and two priority inhibitors (C and D) are shown. The relative migration distances for each example are shown.
as §1
All inhibitors identified in the primary screens, a selection of U87-specific activators, and some apparently inert control compounds were rescreened in scratch wound assays using an additional glioma cell line (Gli36) (FIG. 4A).

glioma cells = experiment: Glioma cell assays combined (scratch and sphere, several cell lines); conditions: 100 μM; for Effect on glioma cells, overall: multiple assays and cell lines; for Effect on glioma cell migration: scratch assays
Description: FIG. 2 illustrates a schematic of a functional screening approach. Seventy-four PTPμ wedge-targeted compounds and 2 blinded DMSO samples were received from Atomwise and screened at 100 μM in scratch wound healing assays using two glioma cell lines (LN229 and U87). Selected active and control compounds were taken into secondary assays (Gli36 scratch and LN229 and Gli36 sphere formation and growth assays). Inhibitors selected as being active in primary and secondary screens were tested for effects on the survival of LN229 and Sf9 cells, and selected glioma-cell inhibitors and activators were screened for effects on Sf9-PTPμ aggregation, a highly specific test for PTPμ function.
as §1
Cells were seeded at a density of 7500 cells per well into the internal wells of 96-well plates coated with 0.75% (wt/vol) PVA as previously described. Compounds were added (2×replicates per treatment) at the indicated final concentrations, and control wells were treated with matching concentrations of DMSO. The external wells of the plates were filled with PBS to buffer against edge effects, and the cells were incubated at 37 °C and 5% CO2 for 7 days. A Leica CTR6500 microscope fitted with an automated stage was used to capture brightfield images on day 1 and day 7, and sphere footprint areas were measured using Image J (v1.52a http://imagej.nih.gov/ij) as previously described. To quantify the effects of the compounds on day 1, the footprint areas of the treated wells were normalized to the average area of the matched DMSO control wells. To quantify the effects of the compounds on sphere growth, the change in the sphere footprint areas was calculated ([…]) and then normalized to the average size change of the matched DMSO samples. All values are presented as average percentages±s.e.m.

Row | Structure (SMILES) | Effect on LN229 cell morphology in scratch assay (LN229 cells; 100 μM) | activity at 100 µM (LN229 cells) [%] | Effect on Gli36 cell morphology in scratch assay (Gli36 cells) | Effect on glioma cells, overall (glioma cells) | Effect on Gli36 migration (scratch wound closure) (Gli36 cells) | Effect on glioma cell migration (glioma cells) | Effect on LN229 scratch wound closure / migration (LN229 cells; 100 μM, in words)
1 | CCN(C(=O)CN1C(=O)NC(C)(CCC(C)C)C1=O)c1cccc2ccccc12 (centres unmarked) [Compound 247677616] | rounding | < 60 | dramatic effect on Gli36 cell morphology | highly penetrant inhibitors in glioma cell assays | – | – | –
2 | O=C(NCc1nc(-c2ccncc2)no1)c1ccc(Cl)c(S(=O)(=O)NCc2ccccc2)c1 [Compound 247678791] | subtle effects on the morphology of LN229 cells | < 60 | did not dramatically affect Gli36 cell morphology | highly penetrant inhibitors; also recorded: able to inhibit glioma cells | moderate inhibitor | able to inhibit glioma cell migration | –
3 | COc1cc(C)ccc1OCC(=O)Nc1nc(-c2c[nH]c(C(N)=O)c2)cs1 [Compound 247678835] | rounded with no ruffles | < 60 | reduced the appearance of processes and cell chains at the scratch edge | highly penetrant inhibitors; also recorded: able to inhibit glioma cells | strong priority inhibitor | able to inhibit glioma cell migration | completely blocked the movement of cells into the scratch; also recorded: strongest inhibitor identified in the initial screen of LN229 migration
